From PMC8058344, “ARIH1 signaling promotes anti-tumor immunity by targeting PD-L1 for proteasomal degradation” (Nature Communications, 2021)

Columns and labels:
JAK2 = JAK2 (Homo sapiens, UniProt O60674); test: In vitro kinase specificity profiling; format: biochemical
PDGFRa = PDGFRa (Homo sapiens, UniProt P16234); test: In vitro kinase specificity profiling; format: biochemical
CMET = CMET (Homo sapiens, UniProt P08581); test: In vitro kinase specificity profiling; format: biochemical
HER2 = HER2 (Homo sapiens, UniProt P04626); test: In vitro kinase specificity profiling; format: biochemical
EGFR T790M = EGFR T790M (Homo sapiens, UniProt P00533, T790M); test: In vitro kinase specificity profiling; format: biochemical
EGFR = EGFR (Homo sapiens, UniProt P00533); test: In vitro kinase specificity profiling; format: biochemical; settings: EGFR wild-type
GSK3α = test: Immunoblots of p-GSK3α in H1975 cells; format: cell-based, human; settings: 10 μM, 24 h, compared to Gefitinib and AZD9291
Description: For western blot analysis, cells were collected and washed with PBS, then lysed in radioimmunoprecipitation assay (RIPA) buffer (1% Triton X-100, 100 mM Tris-HCl pH 8.8, 100 mM NaCl, 0.5 mM EDTA). After incubation on ice for 30 min, the lysates were centrifuged at 12,000 × g for 10 min at 4 °C. The supernatant was collected and the protein concentration was measured by bicinchoninic acid reaction. Protein samples were added with 2× loading buffer and heated at 100 °C for 10 min, separated with SDS-polyacrylamide gel electrophoresis (SDS-PAGE), transferred onto polyvinylidene difluoride membranes, and blocked with 5% non-fat milk in Phosphate Buffered Saline with 0.1% Tween-20 (PBST) for 1 h at room temperature. The membranes were probed with the corresponding primary antibodies at 4 °C overnight and horseradish peroxidase-conjugated secondary antibodies at room temperature for 1 h. Signals were detected using chemiluminescence reagents (#4AW001-500, 4A649 Biotech, Co.).
Flag-EV Flag-PD-L1 Flag-EV Flag-PD-L1
43 Flag-PD-L1-TM Flag-PD-L1-TM
GSK3 concenseus phosphorylation motif:S/TXXX S/T EGFR 180 […]
Supplementary Figure 4. […] Quantification for the mean area (MA) of PD-L1/GSK3α (n = 50) or PD-L1/GSK3β (n = 44-50) PLA speckles are indicated by scattergram. […]

Sequence of EGFR (P00533 25-1210): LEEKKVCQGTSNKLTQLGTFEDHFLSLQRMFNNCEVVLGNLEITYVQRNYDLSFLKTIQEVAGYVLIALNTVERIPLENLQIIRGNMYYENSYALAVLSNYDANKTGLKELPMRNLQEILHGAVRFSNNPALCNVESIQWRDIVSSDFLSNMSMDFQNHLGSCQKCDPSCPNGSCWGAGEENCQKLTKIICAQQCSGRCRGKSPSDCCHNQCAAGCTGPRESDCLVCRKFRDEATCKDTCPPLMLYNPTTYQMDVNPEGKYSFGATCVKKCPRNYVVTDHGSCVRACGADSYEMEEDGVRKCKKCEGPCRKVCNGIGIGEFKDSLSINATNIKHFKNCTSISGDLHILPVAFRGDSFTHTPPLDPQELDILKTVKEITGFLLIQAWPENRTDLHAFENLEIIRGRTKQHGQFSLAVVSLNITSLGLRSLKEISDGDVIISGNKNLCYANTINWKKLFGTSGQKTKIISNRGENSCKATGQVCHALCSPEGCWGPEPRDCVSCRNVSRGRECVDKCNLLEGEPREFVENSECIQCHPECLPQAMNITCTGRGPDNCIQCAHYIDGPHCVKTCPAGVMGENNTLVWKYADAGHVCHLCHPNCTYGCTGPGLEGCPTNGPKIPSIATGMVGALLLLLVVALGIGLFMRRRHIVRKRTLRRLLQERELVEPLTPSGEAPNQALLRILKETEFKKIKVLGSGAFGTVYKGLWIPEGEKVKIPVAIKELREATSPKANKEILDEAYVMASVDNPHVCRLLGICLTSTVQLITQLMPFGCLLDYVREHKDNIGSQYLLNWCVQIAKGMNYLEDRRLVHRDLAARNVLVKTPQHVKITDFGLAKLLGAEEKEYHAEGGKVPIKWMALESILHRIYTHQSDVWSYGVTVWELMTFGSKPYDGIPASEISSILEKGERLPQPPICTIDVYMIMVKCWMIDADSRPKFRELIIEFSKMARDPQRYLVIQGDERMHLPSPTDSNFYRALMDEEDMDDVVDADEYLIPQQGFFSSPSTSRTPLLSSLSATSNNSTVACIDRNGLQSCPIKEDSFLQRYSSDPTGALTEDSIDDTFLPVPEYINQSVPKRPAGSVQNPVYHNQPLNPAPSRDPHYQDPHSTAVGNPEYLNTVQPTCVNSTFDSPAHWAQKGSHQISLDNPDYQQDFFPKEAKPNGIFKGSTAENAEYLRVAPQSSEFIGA
Sequence of EGFR T790M (P00533 25-1210 T790M): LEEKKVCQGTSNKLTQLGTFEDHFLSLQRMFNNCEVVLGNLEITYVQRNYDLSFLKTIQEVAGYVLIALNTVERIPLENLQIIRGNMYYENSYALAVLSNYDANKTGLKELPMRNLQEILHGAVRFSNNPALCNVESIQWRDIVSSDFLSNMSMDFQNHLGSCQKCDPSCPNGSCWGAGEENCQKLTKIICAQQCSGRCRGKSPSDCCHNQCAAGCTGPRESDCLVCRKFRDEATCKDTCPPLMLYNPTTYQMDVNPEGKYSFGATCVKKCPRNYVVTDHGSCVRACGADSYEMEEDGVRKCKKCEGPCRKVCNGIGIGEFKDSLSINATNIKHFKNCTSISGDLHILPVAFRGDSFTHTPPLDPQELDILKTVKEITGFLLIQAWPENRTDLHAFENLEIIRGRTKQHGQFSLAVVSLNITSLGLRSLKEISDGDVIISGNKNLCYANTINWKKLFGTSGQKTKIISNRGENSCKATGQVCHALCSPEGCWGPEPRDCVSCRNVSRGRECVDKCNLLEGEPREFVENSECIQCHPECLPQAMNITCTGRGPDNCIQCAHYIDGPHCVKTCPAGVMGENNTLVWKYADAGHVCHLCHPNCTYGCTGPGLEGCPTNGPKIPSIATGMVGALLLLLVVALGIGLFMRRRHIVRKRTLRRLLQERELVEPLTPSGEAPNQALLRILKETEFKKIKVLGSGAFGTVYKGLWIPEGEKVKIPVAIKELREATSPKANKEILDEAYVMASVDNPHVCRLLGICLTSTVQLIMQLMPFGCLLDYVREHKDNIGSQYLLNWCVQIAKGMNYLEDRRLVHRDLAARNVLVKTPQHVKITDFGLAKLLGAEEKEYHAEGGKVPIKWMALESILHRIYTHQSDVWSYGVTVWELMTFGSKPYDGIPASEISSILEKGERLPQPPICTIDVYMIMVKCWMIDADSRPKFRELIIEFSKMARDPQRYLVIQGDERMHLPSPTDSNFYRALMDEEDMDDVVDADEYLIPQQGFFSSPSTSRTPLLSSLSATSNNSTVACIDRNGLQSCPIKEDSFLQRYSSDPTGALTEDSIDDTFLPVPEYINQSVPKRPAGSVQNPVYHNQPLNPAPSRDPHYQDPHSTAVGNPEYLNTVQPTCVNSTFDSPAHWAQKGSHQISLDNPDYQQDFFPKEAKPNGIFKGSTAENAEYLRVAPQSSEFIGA
Sequence of PDGFRa (P16234 24-1089, species assumed): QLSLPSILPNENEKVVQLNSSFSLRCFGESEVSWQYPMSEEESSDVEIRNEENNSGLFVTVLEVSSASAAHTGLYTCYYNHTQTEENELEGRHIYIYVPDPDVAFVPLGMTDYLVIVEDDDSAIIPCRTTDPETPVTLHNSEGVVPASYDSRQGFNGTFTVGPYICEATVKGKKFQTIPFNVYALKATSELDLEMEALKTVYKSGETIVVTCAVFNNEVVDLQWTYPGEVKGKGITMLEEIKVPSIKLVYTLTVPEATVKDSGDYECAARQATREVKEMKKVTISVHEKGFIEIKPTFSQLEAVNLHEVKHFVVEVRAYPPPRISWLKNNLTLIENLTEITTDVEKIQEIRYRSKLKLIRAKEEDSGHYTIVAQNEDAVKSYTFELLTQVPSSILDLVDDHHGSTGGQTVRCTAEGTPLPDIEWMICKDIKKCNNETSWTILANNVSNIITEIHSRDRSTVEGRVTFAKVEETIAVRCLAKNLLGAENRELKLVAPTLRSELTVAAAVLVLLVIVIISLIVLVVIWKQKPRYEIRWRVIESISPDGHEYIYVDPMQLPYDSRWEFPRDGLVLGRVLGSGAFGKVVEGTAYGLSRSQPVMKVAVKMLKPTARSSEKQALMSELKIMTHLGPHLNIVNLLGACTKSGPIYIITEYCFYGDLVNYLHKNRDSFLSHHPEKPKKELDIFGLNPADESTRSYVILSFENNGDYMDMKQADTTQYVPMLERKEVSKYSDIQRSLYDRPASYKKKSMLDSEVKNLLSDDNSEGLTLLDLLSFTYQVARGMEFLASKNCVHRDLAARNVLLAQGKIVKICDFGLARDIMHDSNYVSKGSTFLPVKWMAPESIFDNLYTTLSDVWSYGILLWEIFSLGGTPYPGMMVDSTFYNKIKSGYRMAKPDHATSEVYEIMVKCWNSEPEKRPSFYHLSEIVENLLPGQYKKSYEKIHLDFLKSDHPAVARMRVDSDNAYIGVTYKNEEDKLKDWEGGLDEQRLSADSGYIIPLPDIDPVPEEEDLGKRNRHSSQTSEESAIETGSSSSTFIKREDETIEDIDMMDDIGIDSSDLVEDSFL
Sequence of JAK2 (O60674 whole entry): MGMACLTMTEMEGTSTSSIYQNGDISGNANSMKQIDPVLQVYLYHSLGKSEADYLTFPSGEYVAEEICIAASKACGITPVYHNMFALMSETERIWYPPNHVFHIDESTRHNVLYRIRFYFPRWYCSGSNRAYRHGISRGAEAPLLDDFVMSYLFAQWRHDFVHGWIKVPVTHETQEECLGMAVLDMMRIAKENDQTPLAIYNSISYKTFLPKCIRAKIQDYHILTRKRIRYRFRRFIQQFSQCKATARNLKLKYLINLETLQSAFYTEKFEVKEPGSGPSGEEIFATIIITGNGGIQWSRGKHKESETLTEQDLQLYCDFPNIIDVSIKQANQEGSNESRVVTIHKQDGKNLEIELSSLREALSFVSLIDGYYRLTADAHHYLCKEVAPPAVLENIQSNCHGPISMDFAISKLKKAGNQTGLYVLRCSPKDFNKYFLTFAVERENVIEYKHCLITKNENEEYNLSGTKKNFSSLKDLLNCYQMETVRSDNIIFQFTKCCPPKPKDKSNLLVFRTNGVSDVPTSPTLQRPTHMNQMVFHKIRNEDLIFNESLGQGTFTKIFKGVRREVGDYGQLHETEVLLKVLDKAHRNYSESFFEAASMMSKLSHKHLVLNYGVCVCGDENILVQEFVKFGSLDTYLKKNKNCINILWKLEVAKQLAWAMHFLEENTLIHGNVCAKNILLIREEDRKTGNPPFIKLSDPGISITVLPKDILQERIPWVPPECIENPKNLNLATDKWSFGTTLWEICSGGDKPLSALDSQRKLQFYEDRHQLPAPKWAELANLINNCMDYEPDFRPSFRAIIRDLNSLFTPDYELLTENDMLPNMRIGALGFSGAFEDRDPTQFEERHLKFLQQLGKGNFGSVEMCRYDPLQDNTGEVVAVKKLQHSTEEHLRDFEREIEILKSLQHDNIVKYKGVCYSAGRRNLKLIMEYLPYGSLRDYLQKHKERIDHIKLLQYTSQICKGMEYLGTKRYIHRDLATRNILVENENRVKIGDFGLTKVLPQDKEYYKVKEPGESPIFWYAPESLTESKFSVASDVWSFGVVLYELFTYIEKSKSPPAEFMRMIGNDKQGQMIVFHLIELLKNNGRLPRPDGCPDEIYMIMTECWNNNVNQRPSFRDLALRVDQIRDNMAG

- IC50 (JAK2): 4960 nM
- IC50 (PDGFRa): 3850 nM
- IC50 (CMET): > 10000 nM
- IC50 (HER2): 147 nM
- IC50 (EGFR T790M): < 0.5 nM
- IC50 (EGFR): 8.9 nM
SMILES: C=CC(=O)Nc1cccc(Nc2nc(Nc3ccc(N4CCN(C)CC4)nc3OC)ncc2C(F)(F)F)c1 [ES-072]
- activation effect on GSK3α (loss of the inhibitory phosphorylation of GSK3α) (GSK3α): higher activation effect
